# According to PubChem BioAssay AID256 (DTP/NCI, 2004):
# Where “and” joins values, the source holds several entries; their conditions need not be identical. Equal entries are not always repeated. Toxic doses and inconclusive results are not listed.
# Test system: CD2F1 mice, L1210 leukemia ip, survival T/C
# Experiment: NCI In Vivo Anticancer Drug Screen. Data for tumor model L1210 Leukemia (intraperitoneal) in CD2F1 (CDF1) mice
# Conditions: higher = longer survival
# Procedure, shortened: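 In this screen, transplantable tumors were grown in mice given either the compound or its vehicle. Results were expressed as the treated measurement relative to the control measurement.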
# [1] = endpoint: mean survival time, dose: 100.0 mg/kg/injection, schedule: Q01DX001 (ip), vehicle: carboxymethylcellulose (CMC)
# [2] = endpoint: mean survival time, dose: 200.0 mg/kg/injection, schedule: Q01DX001 (ip), vehicle: carboxymethylcellulose (CMC)
# [3] = endpoint: mean survival time, dose: 100.0 mg/kg/injection, schedule: Q01DX001 (ip), vehicle: saline
# [4] = endpoint: mean survival time, dose: 200.0 mg/kg/injection, schedule: Q01DX001 (ip), vehicle: saline
# [5] = endpoint: mean survival time, dose: 400.0 mg/kg/injection, schedule: Q01DX001 (ip), vehicle: saline
# [6] = endpoint: mean survival time, dose: 100.0 mg/kg/injection, schedule: Q04DX002 (ip), vehicle: saline with Tween-80
# [7] = endpoint: mean survival time, dose: 200.0 mg/kg/injection, schedule: Q04DX002 (ip), vehicle: saline with Tween-80
# [8] = endpoint: mean survival time, dose: 100.0 mg/kg/injection, schedule: Q04DX003 (ip), vehicle: saline with Tween-80
# [9] = endpoint: mean survival time, dose: 200.0 mg/kg/injection, schedule: Q04DX003 (ip), vehicle: saline with Tween-80
# [10] = endpoint: mean survival time, dose: 400.0 mg/kg/injection, schedule: Q04DX003 (ip), vehicle: saline with Tween-80
# [11] = endpoint: mean survival time, dose: 50.0 mg/kg/injection, schedule: Q01DX009 (ip), vehicle: saline with Tween-80
# [12] = endpoint: mean survival time, dose: 100.0 mg/kg/injection, schedule: Q01DX009 (ip), vehicle: saline with Tween-80
# [13] = endpoint: mean survival time, dose: 200.0 mg/kg/injection, schedule: Q01DX009 (ip), vehicle: saline with Tween-80
# [14] = endpoint: mean survival time, dose: 400.0 mg/kg/injection, schedule: Q01DX009 (ip), vehicle: saline with Tween-80
# [15] = endpoint: mean survival time, dose: 100.0 mg/kg/injection, schedule: Q01DX001 (ip), vehicle: saline with Tween-80
# [16] = endpoint: mean survival time, dose: 200.0 mg/kg/injection, schedule: Q01DX001 (ip), vehicle: saline with Tween-80
# [17] = endpoint: mean survival time, dose: 400.0 mg/kg/injection, schedule: Q04DX002 (ip), vehicle: saline with Tween-80
smiles,measurement,setting,value
COc1cc([NH-])c([NH-])cc1OC.[Cl][Pt+2][Cl],T/C,"endpoint: mean survival time, dose: 1.25 mg/kg/injection, schedule: Q01DX009 (ip), vehicle: saline with Tween-80",103 % of control
same,T/C,"endpoint: mean survival time, dose: 2.5 mg/kg/injection, schedule: Q01DX009 (ip), vehicle: saline with Tween-80",107 % of control
same,T/C,"endpoint: mean survival time, dose: 5.0 mg/kg/injection, schedule: Q01DX009 (ip), vehicle: saline with Tween-80",105 % of control
same,T/C,"endpoint: mean survival time, dose: 10.0 mg/kg/injection, schedule: Q01DX009 (ip), vehicle: saline with Tween-80",106 % of control
same,T/C,"endpoint: mean survival time, dose: 20.0 mg/kg/injection, schedule: Q01DX009 (ip), vehicle: saline with Tween-80",104 % of control and 111 % of control
same,T/C,"endpoint: mean survival time, dose: 40.0 mg/kg/injection, schedule: Q01DX009 (ip), vehicle: saline with Tween-80",107 % of control
same,T/C,"endpoint: mean survival time, dose: 80.0 mg/kg/injection, schedule: Q01DX009 (ip), vehicle: saline with Tween-80",107 % of control
same,T/C,"endpoint: mean survival time, dose: 160.0 mg/kg/injection, schedule: Q01DX009 (ip), vehicle: saline with Tween-80",92 % of control
Clc1cc(Cl)cc(-c2cc(Cl)cc(Cl)c2)c1,T/C,[1],101 % of control
same,T/C,[2],92 % of control
same,T/C,"endpoint: mean survival time, dose: 400.0 mg/kg/injection, schedule: Q01DX001 (ip), vehicle: carboxymethylcellulose (CMC)",95 % of control
O=S(=O)(c1cc(Cl)ccc1O)c1cc(Cl)ccc1O,T/C,[3],103 % of control
same,T/C,[4],100 % of control
same,T/C,[5],100 % of control
Cc1nc(N=C(N)N)nc2ccc(Cl)cc12,T/C,"endpoint: mean survival time, dose: 18.8 mg/kg/injection, schedule: Q01DX009 (ip), vehicle: saline",97 % of control
CCCCOC(=O)COc1c(Cl)ccc(Cl)c1Cl,T/C,[6],102 % of control
same,T/C,[7],95 % of control
ClC(Cl)(Cl)C1CCC(Br)C2CCCCC21 (centres undefined),T/C,[8],92 % of control
same,T/C,[9],100 % of control
same,T/C,[10],96 % of control
COc1cccc(C=Nc2ccc(C)cc2)c1O.COc1cccc(C=Nc2ccc(C)cc2)c1O.[Co],T/C,"endpoint: mean survival time, dose: 25.0 mg/kg/injection, schedule: Q04DX003 (ip), vehicle: saline with Tween-80",91 % of control
same,T/C,"endpoint: mean survival time, dose: 50.0 mg/kg/injection, schedule: Q04DX003 (ip), vehicle: saline with Tween-80",88 % of control
same,T/C,"endpoint: mean survival time, dose: 50.0 mg/kg/injection, schedule: Q04DX003 (ip), vehicle: saline",102 % of control
same,T/C,[8],94 % of control
same,T/C,"endpoint: mean survival time, dose: 100.0 mg/kg/injection, schedule: Q04DX003 (ip), vehicle: saline",98 % of control
same,T/C,[9],94 % of control
same,T/C,"endpoint: mean survival time, dose: 200.0 mg/kg/injection, schedule: Q04DX003 (ip), vehicle: saline",96 % of control
same,T/C,[10],99 % of control
same,T/C,"endpoint: mean survival time, dose: 400.0 mg/kg/injection, schedule: Q04DX003 (ip), vehicle: saline",98 % of control
COc1ccccc1OCCN1Cc2ccccc2C1,T/C,[11],94 % of control
same,T/C,[12],100 % of control
same,T/C,[13],97 % of control
O=c1nc2n(CCO)c3ccccc3cc-2c(=O)[nH]1,T/C,[3],95 % of control
same,T/C,[4],95 % of control
same,T/C,[5],89 % of control
Nc1nc(N)c(NC=O)c(N)n1,T/C,"endpoint: mean survival time, dose: 12.5 mg/kg/injection, schedule: Q01DX009 (ip), vehicle: water",101 % of control
same,T/C,"endpoint: mean survival time, dose: 25.0 mg/kg/injection, schedule: Q01DX009 (ip), vehicle: water",101 % of control
same,T/C,"endpoint: mean survival time, dose: 50.0 mg/kg/injection, schedule: Q01DX009 (ip), vehicle: water",106 % of control
same,T/C,"endpoint: mean survival time, dose: 100.0 mg/kg/injection, schedule: Q01DX009 (ip), vehicle: water",103 % of control
same,T/C,"endpoint: mean survival time, dose: 200.0 mg/kg/injection, schedule: Q01DX009 (ip), vehicle: water",103 % of control
CC(C)(C)OC(=O)N1CCCC1C(=O)O (centres undefined),T/C,[8],96 % of control
same,T/C,[9],101 % of control
same,T/C,[10],110 % of control
Nc1ccc(CCCCNC(=O)c2ccccc2)cc1,T/C,[8],93 % of control
same,T/C,[9],96 % of control
same,T/C,[10],90 % of control
Cc1ccc(NC(=S)NC(=O)/C=C/c2ccccc2)cc1Cl,T/C,"endpoint: mean survival time, dose: 50.0 mg/kg/injection, schedule: Q04DX002 (ip), vehicle: saline with Tween-80",95 % of control and 97 % of control
same,T/C,[6],91 % of control and 97 % of control
same,T/C,[7],93 % of control and 94 % of control
O=C1C=CC(=O)N1CO (tested in a mixture with another compound),T/C,[12],98 % of control
same,T/C,[13],98 % of control
same,T/C,[14],93 % of control
COc1ccc(NC(=O)Nc2ccc(Br)cc2)cc1,T/C,[12],88 % of control
same,T/C,[8],96 % of control
same,T/C,[13],89 % of control
same,T/C,[9],98 % of control
same,T/C,[14],89 % of control
O=C(O)c1ccc(NC(=S)NC(=O)c2cccc(Br)c2)cc1,T/C,[15],97 % of control
same,T/C,[12],95 % of control and 97 % of control
same,T/C,[6],95 % of control
same,T/C,[8],100 % of control
same,T/C,[16],88 % of control and 101 % of control
same,T/C,[13],95 % of control and 101 % of control
same,T/C,[7],94 % of control and 103 % of control
same,T/C,[9],90 % of control
same,T/C,"endpoint: mean survival time, dose: 400.0 mg/kg/injection, schedule: Q01DX001 (ip), vehicle: saline with Tween-80",92 % of control and 95 % of control
same,T/C,[14],86 % of control
same,T/C,[17],97 % of control and 106 % of control
same,T/C,[10],93 % of control
O=C(CNC(=O)Nc1cccc(Cl)c1)N/N=C/c1ccccc1Cl,T/C,[12],106 % of control
same,T/C,[13],109 % of control
same,T/C,[14],112 % of control
O=C(O)Cc1c[nH]c2ccc(O)cc12,T/C,[12],98 % of control
same,T/C,[8],105 % of control
same,T/C,[13],96 % of control
same,T/C,[9],100 % of control
same,T/C,[14],95 % of control
same,T/C,[10],100 % of control
ClC(Cl)(Cl)C1=NCc2nnn(Cc3ccccc3)c2N1,T/C,"endpoint: mean survival time, dose: 12.5 mg/kg/injection, schedule: Q01DX009 (ip), vehicle: saline with Tween-80",100 % of control
same,T/C,"endpoint: mean survival time, dose: 25.0 mg/kg/injection, schedule: Q01DX009 (ip), vehicle: saline with Tween-80",92 % of control
same,T/C,[11],105 % of control
same,T/C,[12],100 % of control
same,T/C,[13],107 % of control
same,T/C,[14],94 % of control
CC1=CC(=O)OC(C)(C)C1,T/C,"endpoint: mean survival time, dose: 100.0 mg/kg/injection, schedule: Q01DX009 (ip), vehicle: saline",97 % of control
same,T/C,"endpoint: mean survival time, dose: 200.0 mg/kg/injection, schedule: Q01DX009 (ip), vehicle: saline",96 % of control
same,T/C,"endpoint: mean survival time, dose: 400.0 mg/kg/injection, schedule: Q01DX009 (ip), vehicle: saline",114 % of control
Cc1ccc2c(c1)C(=O)/C(=C/c1ccccn1)CCO2,T/C,[6],92 % of control
same,T/C,[7],88 % of control
same,T/C,[17],92 % of control
O=C(CNC(=O)c1ccccc1)N/N=C/c1cccc([N+](=O)[O-])c1,T/C,[12],90 % of control
same,T/C,[14],89 % of control
CCOC(=O)C(C)CN(CC(C)C(=O)OCC)C(C)(C)C (centres undefined),T/C,[15],112 % of control
same,T/C,[16],100 % of control
NC(=O)c1c[se]c(C2OC(CO)C(O)C2O)n1 (centres undefined),T/C,"endpoint: median survival time, dose: 12.5 mg/kg/injection, schedule: Q01DX009 (ip), vehicle: water",174 % of control and 187 % of control
same,T/C,"endpoint: median survival time, dose: 25.0 mg/kg/injection, schedule: Q01DX009 (ip), vehicle: water",170 % of control and 193 % of control
same,T/C,"endpoint: median survival time, dose: 50.0 mg/kg/injection, schedule: Q01DX009 (ip), vehicle: water",206 % of control and 233 % of control
same,T/C,"endpoint: median survival time, dose: 100.0 mg/kg/injection, schedule: Q01DX009 (ip), vehicle: water",216 % of control and 233 % of control
O=C(/C=C/c1ccccc1)Nc1cccc2ccccc12,T/C,[6],90 % of control
same,T/C,[7],105 % of control
same,T/C,[17],94 % of control
Oc1ccc(N=Nc2ccccn2)c(O)c1,T/C,[8],97 % of control
same,T/C,[9],112 % of control
same,T/C,[10],93 % of control
CC1(C)N=C(N)N=C(N)N1c1ccc(OCCOc2ccc(NC(=O)CBr)cc2)cc1,T/C,"endpoint: mean survival time, dose: 176.0 mg/kg/injection, schedule: Q01DX006 (ip), vehicle: other",118 % of control
same,T/C,"endpoint: mean survival time, dose: 266.0 mg/kg/injection, schedule: Q01DX006 (ip), vehicle: other",124 % of control
same,T/C,"endpoint: mean survival time, dose: 600.0 mg/kg/injection, schedule: Q01DX006 (ip), vehicle: other",94 % of control
O=C(O)C(Br)C(Br)C(=O)O (centres undefined),T/C,"endpoint: mean survival time, dose: 50.0 mg/kg/injection, schedule: Q01DX001 (ip), vehicle: carboxymethylcellulose (CMC)",98 % of control
same,T/C,[1],93 % of control
same,T/C,[2],95 % of control
COc1ccc(CCNC(=O)Cc2cc(OC)c(OC)cc2Br)cc1OC,T/C,[8],94 % of control
same,T/C,[9],100 % of control
same,T/C,[10],96 % of control
CC(C)(C)C1CCC(O)(CSc2ccccc2)CC1 (centres undefined),T/C,[8],97 % of control
same,T/C,[9],92 % of control
same,T/C,[10],92 % of control
C=C1C(=O)OC2/C=C(\C)CC/C=C(/C)CC(OC(=O)/C(=C/CO)CO)C12 (centres undefined),T/C,"endpoint: mean survival time, dose: 10.0 mg/kg/injection, schedule: Q01DX009 (ip), vehicle: Klucel (hydroxypropylcellulose) (HPC)",96 % of control
same,T/C,"endpoint: mean survival time, dose: 20.0 mg/kg/injection, schedule: Q01DX009 (ip), vehicle: Klucel (hydroxypropylcellulose) (HPC)",100 % of control
same,T/C,"endpoint: mean survival time, dose: 40.0 mg/kg/injection, schedule: Q01DX009 (ip), vehicle: Klucel (hydroxypropylcellulose) (HPC)",95 % of control
